In patent US6379649B1, “Imidazo(1,2-a)pyridines as peripheral benzodiazepine receptor binding agents” (Australian Nuclear Science & Technology Organisation, priority 1998, dated 2002):

How the values were obtained:
[1] = biological target: T1, peripheral benzodiazepine receptor (Rattus norvegicus, UniProt P16257); assay: Pretreatment (blocking) of uptake of radiolabelled compounds in rats; format: in vivo; parameters: high uptake in the tissues which have known PBR sites; from tissue; host or cells: living rats; organs with PBR sites; conditions: pretreatment with unlabelled substance (1 mg/kg)
[2] = biological target: central benzodiazepine receptor; assay: In vitro binding assay for central benzodiazepine receptors ([^3H]-Ro 15-1788, rat cortex membranes); conditions: rat cortex membrane / rat brain homogenates, [^3H]-Ro 15-1788 2 nM, 25° C., 45 minutes; read-out: IC50 (nM) CBR
Procedure: In Vitro Binding Assays for Central Benzodiazepine Receptors
Male Sprague Dawley rats are sacrificed by CO2 administration followed by cervical dislocation. Cortex is removed and placed in 20 volumes of ice-cold buffer ([…] Tris-HCl, pH 7.4) and minced finely with scissors. After homogenising the preparation will a polytron (PCU Kinematica, Bioblock, Switzerland) with one 10-second burst at a setting of 6, the suspension is centrifuged at 20,000 g for 20 minutes at 4° C. The pellets are resuspended in the previous buffer with a dounce (manual homogeniser). After the second centrifugation, the pellet is suspended in a final buffer (50 nM Tris/HCl, 0.32M sucrose, pH 7.4) to yield an appropriate protein concentration. Protein measurements are made by Lowry's method using bovine serum albumin as standard.
(§1) Non-specific binding is determined by blocking with cold Flumazenil (20 μM). Incubation is terminated by rapid filtration through Whatman GF/B glass fiber. Each sample tube and filter is immediately washed with 3 aliquots of 5 mL ice-cold […] Tris/HCl at pH 7.4. Filters are counted with a β-scintillation counter (Packard) to measure the amount of bound radioactivity. Ki and IC50 are calculated by EBDA/Ligand, iterative non-linear least squares curve-fitting programs (G. A. McPherson, J. Pharmacol. Methods 14, 213-228 (1985)).

[3] = biological target: T1, peripheral benzodiazepine receptor; assay: In vitro binding assay for peripheral benzodiazepine receptors ([^3H]-PK11195, rat kidney membranes); parameters: diluted kidney membrane preparation; from tissue; host or cells: rat kidney membranes (Sprague Dawley)
Procedure: In Vitro Binding Assays for Peripheral Benzodiazepine Receptors
Male Sprague Dawley rats are sacrificed by CO2 administration followed by cervical dislocation. Kidneys are removed and placed in 20 volumes of ice-cold buffer ([…] Tris-HCl, pH 7.4) and minced finely with scissors. After homogenising the preparation with a polytron (PCU Kintematica, Bioblock, Switzerland) with one 10-second burst at a setting of 10, the suspension is centrifuged at 49,000 g for 15 minutes at 4° C. The pellets are resuspended in the previous buffer with a dounce (manual homogeniser) to yield an appropriate protein concentration. Protein measurements are made by Lowry's method using bovine serum albumin as standard.
as §1, with “PK11195 (10” for “Flumazenil (20”, “programs.” for “programs (G. A. McPherson, J. Pharmacol. Methods 14, 213-228 (1985)).”

## CN1C(=O)CN=C(c2ccccc2)c2cc(Cl)ccc21 [Diazepam]
[1]
  effect of pretreatment on uptake of activity of the radiolabelled compounds in the tissues of interest: only marginally

## CCCN(C)C(=O)Cc1c(-c2ccc(I)cc2)nc2ccc(Cl)cn12 [Example 4, 6-chloro-2-(4′-iodophenyl)-imidazo[1,2-a]pyridine-3-(N-methyl, N-propyl)-acetamide]
[2]
  IC50: 117 nM
[3]
  IC50: 0.98 nM
other
  melting point: 170 to 172 °C

## CCCN(CCC)C(=O)Cc1c(-c2ccc(I)cc2)nc2ccc(Cl)cn12 [Example 5, 6-chloro-2-(4′-iodophenyl)-imidazo[1,2-a]pyridine-3-(N,N-dipropyl)-acetamide]
[2]
  IC50: > 1000 nM
[3]
  IC50: 3.91 nM
other
  melting point: 152 to 153 °C

## CCCCN(CCCC)C(=O)Cc1c(-c2ccc(I)cc2)nc2ccc(Cl)cn12 [Example 7, 6-chloro-2-(4′-iodophenyl)-imidazo[1,2-a]pyridine-3-(N,N-dibutyl)-acetamide]
[2]
  IC50: > 1000 nM
[3]
  IC50: 177 nM
other
  melting point: 250 to 252 °C

## CCOC(=O)c1ncn2c1CN(C)C(=O)c1cc(F)ccc1-2 [Flumazenil]
[1]
  effect of pretreatment on uptake of activity of the radiolabelled compounds in the tissues of interest: only marginally

## CCC(C)N(C)C(=O)c1cc2ccccc2c(-c2ccccc2Cl)n1 (stereo not drawn) [PK 11195, 1-(2-chlorophenyl)-N-methyl-N-(1-methylpropyl)-3-isoquinolinecarboxamide]
[1]
  effect of pretreatment on uptake of activity of the radiolabelled compounds in the tissues of interest: significantly reduced
